The results in this text go back to ChEMBL document CHEMBL1132317, “Solution structure of iron(III)-anthracycline complexes” (J Med Chem, 1999).

For the assay, the system named is K562. Description: Cytotoxic activity against K562 erythroleukemic cells. The assay is classed as functional, cell-based. Conditions: Homo sapiens.

As for `CC(=O)[C@]1(O)Cc2c(O)c3c(c(O)c2[C@@H](O[C@H]2C[C@H](N)[C@H](O)[C@H](C)O2)C1)C(=O)c1ccccc1C3=O` [IDARUBICIN], half-maximal inhibition (IC50) required 2 nM.
